# Measurements reported in patent EP0745595A1, “3-(3-Aryloxyphenyl)-1-(substituted methyl)-s-triazine-2,4,6-oxo or thiotrione herbicidal agents” (American Cyanamid Company, priority 1995, dated 1996).
# Legend:
# Type in all cases: in vivo
# [1] = tested on: AMBROSIA ARTEMISIIFOLIA, L.; test: Postemergence herbicidal evaluation, AMBEL (Ragweed, Common)
# Method in brief: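 Common ragweed (Ambrosia artemisiifolia) seedlings were raised in jiffy flats for roughly two weeks, then sprayed postemergence through a nozzle at 40 psi with the test compound dispersed in 50/50 acetone/water carrying 0.5% TWEEN®20. The plants were kept on greenhouse benches under conventional care. Four to five weeks later, injury was rated visually on a 0-9 scale, and repeat tests were averaged.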
# [2] = tested on: CASSIA OBTUSIFOLIA, L.; test: Postemergence herbicidal evaluation, CASOB (Sicklepod); set-up: key to CASOB rating / Herbicidal effect rating, CASOB / CASOB: 0-9 visual rating scale vs untreated control; conditions: for CASOB, herbicide rating (0-9): rated four to five weeks after treatment, averaged
# Method in brief: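 Visual 0–9 scores reflect stand, vigor, malformation, size, chlorosis and overall appearance relative to control, taken 4–5 weeks after spraying two-week-old seedlings with about 0.125–0.500 kg/ha compound in acetone/water/TWEEN 20.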
# [3] = tested on: CHENOPODIUM ALBUM, L.; test: Postemergence herbicidal evaluation, CHEAL (Lambsquarters, Common)
# Method in brief: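 Seedlings of common lambsquarters (Chenopodium album) were raised in jiffy flats for roughly two weeks, then sprayed postemergence through a nozzle at 40 psi with test compound dispersed in 50/50 acetone/water containing 0.5% TWEEN®20 surfactant. Plants were kept on greenhouse benches under standard care and rated visually on a 0-9 scale versus controls.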
# [4] = tested on: IPOMOEA SPP.; test: Postemergence herbicidal evaluation, IPOSS (Morningglory spp.)
# Method in brief: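 Seedlings of morningglory (Ipomoea spp.) were raised in jiffy flats for roughly two weeks. They were then sprayed postemergence through a nozzle at 40 psi with test compound dispersed in 50/50 acetone/water containing 0.5% TWEEN®20 surfactant. Plants were kept on greenhouse benches under standard care and visually rated 0-9 against controls four to five weeks after treatment.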
# [5] = tested on: GALIUM APARINE; test: Postemergence herbicidal evaluation, GALAP (Galium); set-up: key to GALAP rating / Herbicidal effect rating, GALAP / GALAP: 0-9 visual rating scale vs untreated control; conditions: for GALAP, herbicide rating (0-9): rated four to five weeks after treatment, averaged
# Method in brief: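 Galium (GALAP) seedlings were raised in jiffy flats for about two weeks, then sprayed with test compounds dispersed in 50/50 acetone/water containing 0.5% TWEEN®20, delivered through a nozzle at 40 psi. Plants were kept on greenhouse benches and visually rated 0-9 against a control four to five weeks later; repeat tests were averaged.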
# [6] = tested on: ECHINOCHLOA CRUS-GALLI, (L) BEAU; test: Postemergence herbicidal evaluation, ECHCG (Barnyardgrass); set-up: key to ECHCG rating / Herbicidal effect rating, ECHCG / ECHCG: 0-9 visual rating scale vs untreated control
# Method in brief: (§1)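 Greenhouse postemergence test. Seedlings (~2 wk) sprayed at 40 psi; dose ~0.125–0.500 kg/ha in acetone/water (1:1), 0.5% TWEEN 20. Scored 0–9 at 4–5 wk.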
# [7] = tested on: SETARIA VIRIDIS, (L) BEAU; test: Postemergence herbicidal evaluation, SETVI (Foxtail, Green); set-up: key to SETVI rating / Herbicidal effect rating, SETVI / SETVI: 0-9 visual rating scale vs untreated control; conditions: for SETVI, herbicide rating (0-9): rated four to five weeks after treatment, averaged
# Method in brief: as §1
# [8] = tested on: TRITICUM AESTIVUM, CV. APOLLO; test: Postemergence herbicidal evaluation, TRZAWO (Wheat, Winter, CV. APOLLO)
# Method in brief: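 Wheat seedlings, raised in jiffy flats for roughly two weeks, were sprayed postemergence with test compound dispersed in a 50/50 acetone/water mixture containing 0.5% TWEEN®20 surfactant, delivered through a nozzle at 40 psi. Plants were then kept on greenhouse benches under conventional care. Four to five weeks after treatment they were rated visually on a 0-9 scale against an untreated control, and ratings from repeated tests were averaged.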
# [9] = tested on: ZEA MAYS L.; test: Postemergence herbicidal evaluation, ZEAMX (Corn, Field)
# Method in brief: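 Corn seedlings were raised in jiffy flats for roughly two weeks, then sprayed postemergence with the test material dispersed in 50/50 acetone/water containing 0.5% TWEEN®20 surfactant, using a nozzle at 40 psi. Plants were kept on greenhouse benches under standard care and visually rated on a 0-9 scale four to five weeks after treatment.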
# [10] = tested on: CHENOPODIUM ALBUM, L.; test: Preemergence herbicidal evaluation, CHEAL (Lambsquarters, Common); conditions: for CHEAL rating: four to five weeks after treatment
# Method in brief: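 Rated 0-9 by visual comparison with control (stand, vigor, malformation, size, chlorosis, overall appearance) four to five weeks after preemergence soil spray. Dose equivalent to about 0.125 to 0.50 kg per hectare, applied in aqueous acetone to freshly seeded cups kept in greenhouse.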
# [11] = tested on: ORYZA SATIVA, L. TEBONNET; test: Rice tolerance to post-transplant applications under flooded paddy conditions, ORYSAT (Rice, Tebonnet); conditions: post-transplant rice, rated three to four weeks after treatment;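 also: applied to flooded soil surface three days after transplanting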
# Method in brief: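 Post-transplant paddy test: compound applied 3 d after transplanting to flooded soil (1.5-3 cm water), ~0.063-0.5 kg/ha a.i., 50/50 aq/acetone. Silt loam, 2 × 10-d seedlings/pot. Greenhouse 3-4 wk, visual 0-9 score vs control.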
smiles,measurement,setting,value
"COC(=O)Cn1c(=O)n(C)c(=O)n(-c2cc(Oc3c(F)cc(C(F)(F)F)cc3Cl)ccc2Br)c1=O [Compound 2, Methyl 3-{2-bromo-5-[(2-chloro-α,α,α,6-tetrafluoro-p-tolyl)oxy]phenyl}tetrahydro-5-methyl-2,4,6-trioxo-s-triazine-1(2H)-acetate]","Herbicidal effect rating, AMBEL",[1]; 0.063 kg/ha,8.0
same,"Herbicidal effect rating, AMBEL",[1]; 0.125 kg/ha,7.3
same,"Herbicidal effect rating, AMBEL",[1]; 0.250 kg/ha,7.5
same,"Herbicidal effect rating, AMBEL",[1]; 0.500 kg/ha,8.0
same,"Herbicidal effect rating, CASOB",[2]; 0.063 kg/ha,9.0
same,"Herbicidal effect rating, CASOB",[2]; 0.125 kg/ha,9.0
same,"Herbicidal effect rating, CASOB",[2]; 0.250 kg/ha,9.0
same,"Herbicidal effect rating, CASOB",[2]; 0.500 kg/ha,9.0
same,"CASOB, herbicide rating (0-9)",[2]; Rate 0.125 kg/ha,9.0
same,"CASOB, herbicide rating (0-9)",[2]; Rate 0.250 kg/ha,9.0
same,"CASOB, herbicide rating (0-9)",[2]; Rate 0.500 kg/ha,9.0
same,"Herbicidal effect rating, CHEAL",[3]; 0.063 kg/ha,8.8
same,"Herbicidal effect rating, CHEAL",[3]; 0.125 kg/ha,8.7
same,"Herbicidal effect rating, CHEAL",[3]; 0.250 kg/ha,8.5
same,"Herbicidal effect rating, CHEAL",[3]; 0.500 kg/ha,8.5
same,"Herbicidal effect rating, IPOSS",[4]; 0.063 kg/ha,8.3
same,"Herbicidal effect rating, IPOSS",[4]; 0.125 kg/ha,8.7
same,"Herbicidal effect rating, IPOSS",[4]; 0.250 kg/ha,9.0
same,"Herbicidal effect rating, IPOSS",[4]; 0.500 kg/ha,9.0
same,"Herbicidal effect rating, GALAP",[5]; 0.063 kg/ha,9.0
same,"Herbicidal effect rating, GALAP",[5]; 0.125 kg/ha,9.0
same,"Herbicidal effect rating, GALAP",[5]; 0.250 kg/ha,9.0
same,"Herbicidal effect rating, GALAP",[5]; 0.500 kg/ha,9.0
same,"GALAP, herbicide rating (0-9)",[5]; Rate 0.125 kg/ha,9.0
same,"GALAP, herbicide rating (0-9)",[5]; Rate 0.250 kg/ha,9.0
same,"GALAP, herbicide rating (0-9)",[5]; Rate 0.500 kg/ha,9.0
same,"Herbicidal effect rating, ECHCG",[6]; 0.063 kg/ha,5.0
same,"Herbicidal effect rating, ECHCG",[6]; 0.125 kg/ha,6.7
same,"Herbicidal effect rating, ECHCG",[6]; 0.250 kg/ha,9.0
same,"Herbicidal effect rating, ECHCG",[6]; 0.500 kg/ha,9.0
same,"Herbicidal effect rating, SETVI",[7]; 0.063 kg/ha,7.5
same,"Herbicidal effect rating, SETVI",[7]; 0.125 kg/ha,9.0
same,"Herbicidal effect rating, SETVI",[7]; 0.250 kg/ha,9.0
same,"Herbicidal effect rating, SETVI",[7]; 0.500 kg/ha,9.0
same,"SETVI, herbicide rating (0-9)",[7]; Rate 0.125 kg/ha,9.0
same,"SETVI, herbicide rating (0-9)",[7]; Rate 0.250 kg/ha,9.0
same,"SETVI, herbicide rating (0-9)",[7]; Rate 0.500 kg/ha,9.0
same,"Herbicidal effect rating, TRZAWO",[8]; 0.063 kg/ha,7.0
same,"Herbicidal effect rating, TRZAWO",[8]; 0.125 kg/ha,7.5
same,"Herbicidal effect rating, TRZAWO",[8]; 0.250 kg/ha,8.0
same,"Herbicidal effect rating, TRZAWO",[8]; 0.500 kg/ha,8.5
same,"Herbicidal effect rating, ZEAMX",[9]; 0.063 kg/ha,7.7
same,"Herbicidal effect rating, ZEAMX",[9]; 0.125 kg/ha,8.4
same,"Herbicidal effect rating, ZEAMX",[9]; 0.250 kg/ha,8.3
same,"Herbicidal effect rating, ZEAMX",[9]; 0.500 kg/ha,8.3
same,CHEAL,[10]; Rate 0.063 kg/ha,9.0
same,CHEAL,[10]; Rate 0.125 kg/ha,9.0
same,CHEAL rating,[10]; Rate 0.125 kg/ha,9.0
same,CHEAL,[10]; Rate 0.250 kg/ha,9.0
same,CHEAL rating,[10]; Rate 0.250 kg/ha,9.0
same,CHEAL,[10]; Rate 0.500 kg/ha,9.0
same,CHEAL rating,[10]; Rate 0.500 kg/ha,9.0
same,ORYSAT herbicidal rating (rice tolerance),[11]; Rate 0.063 kg/ha,2.5
same,ORYSAT herbicidal rating (rice tolerance),[11]; Rate 0.125 kg/ha,4.0
same,ORYSAT herbicidal rating (rice tolerance),[11]; Rate 0.250 kg/ha,5.5
same,ORYSAT herbicidal rating (rice tolerance),[11]; Rate 0.500 kg/ha,6.7
